In patent US12384770B2, “Heterocyclic compound” (Takeda Pharmaceutical Company Limited, priority 2019, dated 2025):

Target: T1, HDAC6 enzyme (Homo sapiens, UniProt Q9UBN7)
T1 construct: HDAC6 enzyme prepared by transducing full length HDAC6 gene into Sf-9 insect cells; GST; purchased SignalChem; host or cells: Sf-9 insect cells
T1 sequence (Q9UBN7 1-1215): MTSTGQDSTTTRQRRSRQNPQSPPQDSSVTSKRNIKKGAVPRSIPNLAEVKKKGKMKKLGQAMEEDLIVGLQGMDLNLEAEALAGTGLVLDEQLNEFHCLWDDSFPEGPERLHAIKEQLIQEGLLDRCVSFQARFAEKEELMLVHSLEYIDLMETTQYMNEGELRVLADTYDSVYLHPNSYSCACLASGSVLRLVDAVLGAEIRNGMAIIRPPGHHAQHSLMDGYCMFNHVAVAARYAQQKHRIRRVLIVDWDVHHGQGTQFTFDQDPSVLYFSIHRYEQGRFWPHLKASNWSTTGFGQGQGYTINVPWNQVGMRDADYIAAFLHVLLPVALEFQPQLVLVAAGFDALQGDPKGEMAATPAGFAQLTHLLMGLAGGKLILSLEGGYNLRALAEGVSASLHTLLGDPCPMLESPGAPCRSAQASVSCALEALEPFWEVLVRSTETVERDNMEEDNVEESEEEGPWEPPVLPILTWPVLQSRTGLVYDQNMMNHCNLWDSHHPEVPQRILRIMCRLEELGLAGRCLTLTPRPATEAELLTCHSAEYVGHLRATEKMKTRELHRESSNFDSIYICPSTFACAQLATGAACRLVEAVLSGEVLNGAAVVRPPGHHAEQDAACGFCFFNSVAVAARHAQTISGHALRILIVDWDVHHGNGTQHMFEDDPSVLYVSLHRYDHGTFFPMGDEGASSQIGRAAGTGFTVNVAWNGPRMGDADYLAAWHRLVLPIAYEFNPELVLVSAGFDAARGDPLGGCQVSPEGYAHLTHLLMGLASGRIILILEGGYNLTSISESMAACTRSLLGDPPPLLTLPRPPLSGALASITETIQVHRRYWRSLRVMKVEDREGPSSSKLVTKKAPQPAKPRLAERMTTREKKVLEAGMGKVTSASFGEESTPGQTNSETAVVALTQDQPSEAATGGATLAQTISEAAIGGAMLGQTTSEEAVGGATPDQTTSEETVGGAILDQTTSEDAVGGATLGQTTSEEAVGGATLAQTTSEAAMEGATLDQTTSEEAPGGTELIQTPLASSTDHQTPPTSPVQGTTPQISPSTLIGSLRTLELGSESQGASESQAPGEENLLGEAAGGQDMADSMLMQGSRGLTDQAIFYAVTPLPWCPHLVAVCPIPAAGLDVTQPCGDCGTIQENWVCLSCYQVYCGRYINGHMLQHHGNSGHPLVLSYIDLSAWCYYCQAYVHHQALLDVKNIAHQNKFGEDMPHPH
Assay: HDAC6 enzyme inhibitory assay (HDAC-Glo I/II Assay kit)
Assay type: biochemical
Conditions: wells without enzyme = 100% inhibition; for inhibition at 10 µM: read-out: HDAC6 inhibitory rate (%) (10 μM)
Method: Experimental Example 1 HDAC6 Enzyme Inhibitory Assay
HDAC6 enzyme prepared by transducing full length HDAC6 gene into Sf-9 insect cells and purifying by GST affinity column were purchased from SignalChem. Using this enzyme, HDAC6 enzyme inhibitory activity of the compound of the present invention were evaluated. Enzymes were used after preserved at −70° C. HDAC6 enzyme inhibitory activity of the compound of the present invention was measured using HDAC-Glo™ I/II Assay kit (Promega) according to the following experimental method. The test compound diluted with assay buffer (24 mM Tris-HCl (pH 7.5), 1 mM MgCl2, 0.35 mM KCl, 135 mM NaCl, 0.6 mM Glutathione, 0.01% Tween-20) was added to a 384-well plate by each 2 μL. Then, HDAC6 enzyme solution diluted with assay buffer was added thereto by each 4 μL, and the plate was incubated at room temperature for 60 min. After incubated, HDAC substrate-Developer solution prepared according to Promega protocol attached to the assay kit was added to the 384-well plate by each 2 μL, and the enzyme reaction was started. After reacting at room temperature for 20 min, luminescence level was measured using plate reader Envision (PerkinElmer). The inhibitory activity of each compound of Example was calculated as a relative activity value when luminescence level in wells without enzyme is considered as 100% inhibition.

inhibition at 10 µM [%]	SMILES	also measured
100	O=C1c2cc(-c3nnc(C(F)F)o3)ccc2CN1[C@H](c1cccnn1)[C@@H](O)c1cccc(Cl)c1 (single isomer, unassigned) [Example 122, 2-[(1R*,2S*)-2-(3-chlorophenyl)-2-hydroxy-1-(pyridazin-3-yl)ethyl]-6-[5-(difluoromethyl)-1,3,4-oxadiazol-2-yl]-2,3-dihydro-1H-isoindol-1-one]	
99	O=C1c2cc(-c3nnc(C(F)F)o3)ccc2CN1[C@H](C1CC1)[C@@H](O)c1cccc(F)n1 (single isomer, unassigned) [Example 79, 2-[(1R*,2R*)-1-cyclopropyl-2-(6-fluoropyridin-2-yl)-2-hydroxyethyl]-6-[5-(difluoromethyl)-1,3,4-oxadiazol-2-yl]-2,3-dihydro-1H-isoindol-1-one]	

Continued, molecule first:

SMILES	inhibition at 10 µM [%]	also measured
Cn1cc([C@H]([C@@H](O)c2ccc(F)cc2)N2Cc3ccc(-c4nnc(C(F)F)o4)cc3C2=O)cn1 (racemic) [Example 43, 6-[5-(difluoromethyl)-1,3,4-oxadiazol-2-yl]-2-[(1RS,2SR)-2-(4-fluorophenyl)-2-hydroxy-1-(1-methyl-1H-pyrazol-4-yl)ethyl]-2,3-dihydro-1H-isoindol-1-one]	100	
O=C1c2cc(-c3nnc(C(F)F)o3)ccc2CN1[C@H](c1ccc(F)cc1)[C@@H](O)c1ccc(C(F)(F)F)nc1 (relative stereo) [Example 55, 6-[5-(difluoromethyl)-1,3,4-oxadiazol-2-yl]-2-{(1R*,2S)-1-(4-fluorophenyl)-2-hydroxy-2-[6-(trifluoromethyl)pyridin-3-yl]ethyl}-2,3-dihydro-1H-isoindol-1-one]	98	
O=C1c2cc(-c3nnc(C(F)F)o3)ccc2CN1[C@H](c1ccc(F)c(F)c1)[C@@H](O)c1ccccn1 (single isomer, unassigned) [Example 50, 6-[5-(difluoromethyl)-1,3,4-oxadiazol-2-yl]-2-[(1R*,2R*)-1-(3,4-difluorophenyl)-2-hydroxy-2-(pyridin-2-yl)ethyl]-2,3-dihydro-1H-isoindol-1-one]	99	
O=C1c2cc(-c3nnc(C(F)F)o3)ccc2CN1[C@H](C1CCOCC1)[C@@H](O)c1ccc(F)c(F)c1 (single isomer, unassigned) [Example 88, 6-[5-(difluoromethyl)-1,3,4-oxadiazol-2-yl]-2-[(1R*,2S*)-2-(3,4-difluorophenyl)-2-hydroxy-1-(oxan-4-yl)ethyl]-2,3-dihydro-1H-isoindol-1-one]		HDAC6 inhibitory rate (%) (10 μM) (10 µM): 99%
O=C1c2cc(-c3nnc(C(F)F)o3)ccc2CN1[C@@H](c1ccccn1)[C@H](O)c1ccc(F)cn1 [Example 4, 6-[5-(difluoromethyl)-1,3,4-oxadiazol-2-yl]-2-[(1S,2S)-2-(5-fluoropyridin-2-yl)-2-hydroxy-1-(pyridin-2-yl)ethyl]-2,3-dihydro-1H-isoindol-1-one]	100	
Cn1cc([C@H]([C@@H](O)c2ccccc2)N2Cc3ccc(-c4nnc(C(F)F)o4)cc3C2=O)cn1 (racemic) [Example 42, 6-[5-(difluoromethyl)-1,3,4-oxadiazol-2-yl]-2-[(1RS,2SR)-2-hydroxy-1-(1-methyl-1H-pyrazol-4-yl)-2-phenylethyl]-2,3-dihydro-1H-isoindol-1-one]	100	
O=C1c2cc(-c3nnc(C(F)F)o3)ccc2CN1[C@H](C1CCOCC1)[C@@H](O)c1cccc(F)c1 [Example 64, 6-[5-(difluoromethyl)-1,3,4-oxadiazol-2-yl]-2-[(1R,2S)-2-(3-fluorophenyl)-2-hydroxy-1-(oxan-4-yl)ethyl]-2,3-dihydro-1H-isoindol-1-one]	100	
O=C1c2cc(-c3nnc(C(F)F)o3)ccc2CN1[C@H](c1cccc(C(F)(F)F)c1)[C@@H](O)c1ccccn1 (racemic) [Example 24, 6-[5-(difluoromethyl)-1,3,4-oxadiazol-2-yl]-2-{(1RS,2RS)-2-hydroxy-2-(pyridin-2-yl)-1-[3-(trifluoromethyl)phenyl]ethyl}-2,3-dihydro-1H-isoindol-1-one]	99	
O=C1c2cc(-c3nnc(C(F)F)o3)ccc2CN1[C@@H](c1ccccn1)[C@H](O)c1cccc(F)n1 [Example 8, 6-[5-(difluoromethyl)-1,3,4-oxadiazol-2-yl]-2-[(1S,2S)-2-(6-fluoropyridin-2-yl)-2-hydroxy-1-(pyridin-2-yl)ethyl]-2,3-dihydro-1H-isoindol-1-one]	99	
O=C1c2cc(-c3nnc(C(F)F)o3)ccc2CN1[C@H](c1ccccc1)[C@H](O)c1ccccc1 [Example 12, 6-[5-(difluoromethyl)-1,3,4-oxadiazol-2-yl]-2-[(1R,2R)-2-hydroxy-1,2-diphenylethyl]-2,3-dihydro-1H-isoindol-1-one]	100	
O=C1c2cc(-c3nnc(C(F)F)o3)ccc2CN1[C@H](c1cnccn1)[C@@H](O)c1ccccc1 (single isomer, unassigned) [Example 128, 6-[5-(difluoromethyl)-1,3,4-oxadiazol-2-yl]-2-[(1R*,2S*)-2-hydroxy-2-phenyl-1-(pyrazin-2-yl)ethyl]-2,3-dihydro-1H-isoindol-1-one]		HDAC6 inhibitory rate (%) (10 μM): 99%
O=C1c2cc(-c3nnc(C(F)F)o3)ccc2CN1[C@H](C1CC1)[C@@H](O)c1ccc(F)cc1 [Example 9, 2-[(1R,2S)-1-cyclopropyl-2-(4-fluorophenyl)-2-hydroxyethyl]-6-[5-(difluoromethyl)-1,3,4-oxadiazol-2-yl]-2,3-dihydro-1H-isoindol-1-one]	100	
O=C1c2cc(-c3nnc(C(F)F)o3)ccc2CN1[C@H](c1ccccc1F)[C@@H](O)c1ccc(F)cc1 (racemic) [Example 28, 6-[5-(difluoromethyl)-1,3,4-oxadiazol-2-yl]-2-[(1RS,2SR)-1-(2-fluorophenyl)-2-(4-fluorophenyl)-2-hydroxyethyl]-2,3-dihydro-1H-isoindol-1-one]	99	
O=C1c2cc(-c3nnc(C(F)F)o3)ccc2CN1[C@H](c1ccccn1)[C@@H](O)c1cccc(Cl)n1 (single isomer, unassigned) [Example 115, 2-[(1R*,2R*)-2-(6-chloropyridin-2-yl)-2-hydroxy-1-(pyridin-2-yl)ethyl]-6-[5-(difluoromethyl)-1,3,4-oxadiazol-2-yl]-2,3-dihydro-1H-isoindol-1-one]		HDAC6 inhibitory rate (%) (10 μM) (10 µM): 100%
O=C1c2cc(-c3nnc(C(F)F)o3)ccc2CN1[C@H](c1cccc(F)n1)[C@@H](O)c1cccc(F)c1 (single isomer, unassigned) [Example 90, 6-[5-(difluoromethyl)-1,3,4-oxadiazol-2-yl]-2-[(1R*,2S*)-2-(3-fluorophenyl)-1-(6-fluoropyridin-2-yl)-2-hydroxyethyl]-2,3-dihydro-1H-isoindol-1-one]		HDAC6 inhibitory rate (%) (10 μM): 100%
O=C1c2cc(-c3nnc(C(F)F)o3)ccc2CN1[C@H](c1ccc(F)cn1)[C@@H](O)c1cccc(F)n1 (single isomer, unassigned) [Example 67, 6-[5-(difluoromethyl)-1,3,4-oxadiazol-2-yl]-2-[(1R*,2R*)-1-(5-fluoropyridin-2-yl)-2-(6-fluoropyridin-2-yl)-2-hydroxyethyl]-2,3-dihydro-1H-isoindol-1-one]		HDAC6 inhibitory rate (%) (10 μM) (10 µM): 99%
